Laboratory results as given in publication PMC8584989 (International Journal of Molecular Sciences, 2021).

What was measured:
[1] = test system: A431-par cells; assay: MTT proliferation / drug combination assay; assay type: cell-based; conditions: read-out: IC50 (IC50-shift analysis)
Protocol: (§1) These colorimetric assays were used in various studies presented in this paper (prior induction studies, MDR reversal experiments and comparative viability assays) and were performed as reported previously. […] In MTT experiments, cells were seeded on a 96-well culture plate at densities (in number of cells/well) of 1.3 × 10^4 for MDCKII-par, MDCKII-ABCB1 and MDCKII-ABCG2; 1.2 × 10^4 for A431-par, A431-ABCB1, A431-ABCG2 and A431-ABCC1; 1.2 × 10^4 for NCI-H1299; 1.0 × 10^4 for A459; 2.0 × 10^4 for Caco-2; 5.0 × 10^4 for LS174T; and 1.0 × 10^4 for primary NSCLC explants. On the other hand, for XTT cells were seeded with densities 2.0 × 10^4 for HL60-par, HL60-ABCB1, HL60-ABCG2 and HL60-ABCC1 cells/well on 96-well plates. […] Following 48 h incubation with drugs, Opti-MEM solutions of MTT or XTT (1 mg/mL) with phenazine methosulfate solution (7.50 μg/mL; only for XTT) was added and the cells were incubated for 1 h with the exception of HL60s that were incubated for 5 h.
(§2) Based on the computed CI values, the effects of drug combinations were classified as synergistic (CI < 0.9), additive (0.9 < CI < 1.1) or antagonistic (CI > 1.1).

[2] = test system: A431-ABCG2 cells; assay: MTT proliferation / drug combination assay; conditions: read-out: IC50 (IC50-shift analysis)
[3] = test system: HL60-ABCG2 cells; assay: XTT proliferation / drug combination assay; conditions: read-out: IC50 (IC50-shift analysis)
[4] = test system: HL60-par cells; assay: XTT proliferation / drug combination assay; assay type: cell-based; conditions: read-out: IC50 (IC50-shift analysis)
Protocol: as §1, §2

[5] = test system: A431-ABCB1 cells; assay: MTT proliferation / drug combination assay; conditions: read-out: IC50 (IC50-shift analysis)
[6] = test system: MDCKII-parent cells; assay: MTT proliferation / drug combination assay; assay type: cell-based, canine; conditions: Canis lupus familiaris, read-out: IC50 (IC50-shift analysis)
Protocol: as §1, §2

[7] = test system: HL60-ABCB1 cells; assay: XTT proliferation / drug combination assay; conditions: read-out: IC50 (IC50-shift analysis)
[8] = test system: MDCKII-ABCB1 cells; assay: MTT proliferation / drug combination assay; conditions: Canis lupus familiaris, read-out: IC50 (IC50-shift analysis)

Row | Compound | IC50 [1] [nM] | IC50 [2] [nM] | IC50 [3] [nM] | IC50 [4] [nM] | IC50 [5] [nM] | IC50 [6] [nM] | IC50 [7] [nM] | IC50 [8] [nM]
1 | O=C1c2c(O)ccc(O)c2C(=O)c2c(NCCNCCO)ccc(NCCNCCO)c21 [mitoxantrone] | 2100 | 56500 | 669 | 30.5 | – | – | – | –
2 | COc1cccc2c1C(=O)c1c(O)c3c(c(O)c1C2=O)C[C@@](O)(C(C)=O)C[C@@H]3O[C@H]1C[C@H](N)[C@H](O)[C@H](C)O1 [daunorubicin] | 1990 | – | – | 53.1 | 21700 | 947 | 2140 | 11900
